In patent EP1618800A1, “Active compositions comprising lycopene, cytidin and fatty acids” (Cognis IP Management GmbH, priority 2004, dated 2006):

Columns and labels:
Format in all cases: biochemical
[1] = Salicylic Acid Test (hydroxylation of salicylic acid by hydroxyl radicals, 490 nm); conditions: sample concentration 0.3 % b.w., average of 2 measurements
Protocol: In a second test, the hydroxylation of salicylic acid by hydroxyl radicals (from the reaction of hydrogen peroxide with iron(III) ions and EDTA) was investigated as a reference system. This reaction can also be photometrically investigated because the hydroxylation product is reddish in colour. The influence of the extracts on the formation of hydroxysalicylic acid was measured at an optical density of 490 nm. The results are also set out in Table 1 where inhibition is again shown in % absolute ("Salicylic Acid Test"). Table 1 Radical-trapping properties in % absolute (results are averages of 2 measurements)

[2] = DPPH Test (radical trapping, photometric at 513 nm); conditions: Batch A; sample concentration 0.3 % b.w.; average of 2 measurements
Source text: In a first series of tests, the effectiveness of the extracts against oxidative stress was investigated by chemical methods. A commercially available extract of tomatoes, CLA (Tonalin® CLA, Cognis) and their mixtures were used in concentrations of 0.3 % b.w. The first test substrate selected was diphenyl picryl hydrazyl (DPPH), a purple-red coloured stable radical which changes into its colourless leuco derivative on contact with radical trappers. The change of colour was followed photometrically at 513 nm. The test results are set out in Table 1 ("DPPH Test") where the inhibition of DPPH is shown in % absolute.

[3] = Deoxyribose oxidation by hydroxyl radicals (thiobarbituric acid, 532 nm), with or without EDTA; conditions: sample concentration 0.3 % b.w., average of 2 measurements
Protocol: In the following test, deoxyribose was used as the test substance. In the presence of hydroxyl radicals formed from H2O2 in the presence of Fe^2+ and EDTA, deoxyribose is oxidized. A pink-coloured substance is formed from the oxidized form by condensation with thiobarbituric acid. The optical density was determined at 532 nm and is dependent on the content of oxidized deoxyribose. A radical-trapping substance reacts with the hydroxyl radicals formed and reduces the formation of pink-coloured substances in this reaction mixture. In addition, the same reaction was carried out without EDTA to investigate complexing properties of the extract with Fe^2+ ions. The concentration of the samples has been again 0.3 % b.w. Table 2 Radical-trapping properties with desoxyribose in % absolute (results are averages of 2 measurements)

xanthine oxidase = experiment: Xanthine oxidase test (superoxide radicals detected with luminol, luminol + microperoxidase or NBT); conditions: sample concentration 0.3 % b.w., average of 2 measurements; for Test with xanthan oxidase, inhibition, NBT: optical density at 490 nm
Source text: In the next test, the radical-trapping properties of the test samples were investigated using xanthine oxidase as the test system. Under oxidative stress, the enzyme converts purine bases, for example, adenine or guanine, into uric acid with intermediate formation of oxygen radicals which are spontaneously decomposed into H2O2 and oxygen by Superoxid-Dismutase (SOD). These Superoxid radicals can be detected and quantitatively determined by reaction with luminol or luminol and microperoxidase and by NBT via the luminescence and the optical density at 490 nm. The luminescence yield diminishes in the presence of substances with radical-trapping properties. The concentration of the test samples has been at 0.3 % b.w. again. The results are set out in Table 3 where the inhibition is shown in % absolute ("Luminol Test"). Table 3 Test with xanthan oxidase in % absolute (results are averages of 2 measurements)

conjugated linoleic acid [C2]
Salicylic Acid Test, inhibition ([1]; Batch A): 5 % absolute | Salicylic Acid Test, inhibition ([1]; Batch B): 5 % absolute | DPPH Test, inhibition of DPPH [2]: 18 % absolute | Radical-trapping properties with desoxyribose, Reaction with EDTA ([3]; Batch A): 1 % absolute | Radical-trapping properties with desoxyribose, Reaction with EDTA ([3]; Batch B): 0 % absolute | Radical-trapping properties with desoxyribose, Reaction without EDTA ([3]; Batch A): 0 % absolute | Radical-trapping properties with desoxyribose, Reaction without EDTA ([3]; Batch B): 0 % absolute | Test with xanthan oxidase, inhibition, Luminol + Microperoxidase (xanthine oxidase; Batch A): 5 % absolute | Test with xanthan oxidase, inhibition, Luminol + Microperoxidase (xanthine oxidase; Batch B): 7 % absolute | Test with xanthan oxidase, inhibition, Luminol (xanthine oxidase; Batch A): 3 % absolute | Test with xanthan oxidase, inhibition, Luminol (xanthine oxidase; Batch B): 3 % absolute | Test with xanthan oxidase, inhibition, NBT (xanthine oxidase; Batch A): 1 % absolute | Test with xanthan oxidase, inhibition, NBT (xanthine oxidase; Batch B): 1 % absolute
